For the molecule `Cc1ccccc1-c1nnc(N)o1`, the melting point fell in the range of 160 to 162 °C.
To `O=C(O)c1ccc(-n2ncc(Cl)c(Cl)c2=O)cc1` belongs 314 to 316 °C.
`COc1ccc2ccccc2c1-c1cc(CBr)on1` came in with a melting point of 85 to 87 °C.
Take `O=Cc1sc2ccccc2c1Cl`: the melting point is 104 to 106 °C.
To `COC(=O)c1cccc(N)c1O` belongs 84 to 86 °C.
`Nc1ccc(C(=O)NC2CCOCC2)cc1` showed a melting point of 217 to 219 °C.
Regarding `CSc1nc(C)c(CC(=O)O)s1`, the melting point is 146 to 148 °C.
Take `NC(=O)NC(CC(=O)O)c1cccc(Oc2ccccc2)c1` (centres undefined): the melting point lay within 122 to 124 °C.
As to `Cc1ccc(-n2c(-c3ccccc3)cnc2S)c(C)c1`, the melting point lay within 247 to 249 °C.
The molecule `CC(=O)Nc1cc(-c2csc(N)n2)ccc1O` showed a melting point of 218 to 222 °C.
For `CC(C)NC(=S)N(C)C`, the melting point is 73 to 75 °C.
`N#Cc1cc(Br)ccc1N=C=O` registered a melting point of 97 to 99 °C.
Consider `CC(C)(C)OC(=O)NCC1CCCCS1` (centres undefined), for which the melting point is 70 to 72 °C.
Turning to `NC(=S)Cc1ccc(Br)cc1`, the melting point was 146 to 148 °C.
`O=C1CCCc2c(Cl)sc(Cl)c21`: the melting point was 37 to 39 °C.
To `Cc1ccc(C)c(C(=O)CCC(=O)O)c1` belongs 80 to 84 °C; to `COC(=O)C1CNC(=O)C1` (centres undefined), 58 to 60 °C.
`Cc1cc2ccc(Cl)cc2nc1NN`: the melting point lay in the range of 169 to 171 °C.
Regarding `OC(CNC1CC1)c1ccc(F)cc1` (centres undefined), the melting point fell in the range of 84 to 86 °C.
With `COc1cc(C=O)cc2c1OCO2`, the melting point was in the range of 130 to 134 °C.
For the molecule `CN(C)c1ccc(-c2cncc(C(=O)O)c2)cc1`, the melting point lay within 284 to 286 °C.
In turn, `Cc1nc(O)nc(C)c1Br` gave a melting point of 210 to 212 °C.
`Cc1cccc2c1CCC2=O` displayed a melting point of 94 to 96 °C.
To `CS(=O)(=O)c1ncc[nH]1` belongs 206 to 208 °C; to `O=C(NO)c1ccccc1Br`, 182 to 184 °C.
Regarding `COc1cc(C(=O)O)ccc1OC(F)F`, the melting point was 171 to 173 °C.
As to `COc1ccc(CCCCCC(=O)O)cc1`, the melting point fell in the range of 46 to 48 °C.
Turning to `Cc1[nH]c(C2CCCN2)nc1-c1ccccc1` (centres undefined), the melting point was 164 to 166 °C.
Regarding `O=C(Nc1cccc(Br)c1)c1ccccc1`, the melting point lay in the range of 136 to 138 °C.
To `CC(Cl)C(=O)NCC(F)(F)F` (centres undefined) belongs 42 to 44 °C; to `O=C(O)c1cccc(F)c1Sc1ccccc1`, 161 to 163 °C.
Regarding `O=C(O)CCCc1cc(Cl)sc1Cl`, the melting point lay in the range of 42 to 44 °C.
The molecule `Cn1cc(N2CCNCC2)cn1` gave a melting point of 68 to 70 °C.
With `Cc1ccc(N2CCCC2)c(C(=O)O)c1`, the melting point lay within 124 to 126 °C.
In turn, `CC(Oc1ccc(C=CC(=O)O)cc1F)c1ccccc1` (centres undefined) gave a melting point of 168 to 170 °C.
To `Cc1cc(C(=O)O)c(C)n1C1CCCCC1` belongs 204 to 206 °C; to `Nc1ccc2nc3n(c(=O)c2c1)CCC3`, 221 to 223 °C.
The molecule `O=c1[nH]c(CCl)nc2cc(C(F)(F)F)ccc12` had a melting point of 209 to 211 °C.
With `OCCc1nc2ccccc2s1`, the melting point is 40 to 44 °C.
The molecule `CC(C)CNC(N)=S` displayed a melting point of 99 to 101 °C.
To `O=C(O)c1cnc(C2CCCO2)s1` (centres undefined) belongs 139 to 141 °C.
Molecule `O=c1oc2cc(O)ccc2c2c1CCC2` yielded a melting point of 214 to 216 °C.
Regarding `O=C(O)C1(Br)CCCCC1`, the melting point was 57 to 59 °C.
Molecule `O=C(CCl)Nc1cc(Cl)ccc1F` gave a melting point of 98 to 102 °C.
The molecule `N#CC1(O)CCOCC1` returned a melting point of 43 to 45 °C.
`CC(C)(C)OC(=O)N1CCc2c(N)cccc2C1`: the melting point was in the range of 122 to 124 °C.
To `CCN(Cc1ccccc1)c1ccc(C(=O)O)cc1` belongs 183 to 185 °C; to `CC(C)NC(=O)c1ccc(N)cc1`, 149 to 151 °C; to `O=C(O)C1CC2CCC(C1)N2C1CC1` (centres undefined), 156 to 158 °C.
Turning to `CC(=O)COc1ccc2cc(Br)ccc2c1`, the melting point was in the range of 106 to 108 °C.
`O=C(Nc1ccccc1)NC1CCNCC1` yielded a melting point of 169 to 171 °C.
Consider `CCOC(=O)c1noc(N)c1-c1ccccc1`, for which the melting point is 105 to 117 °C.
To `CCOc1ccc(C(=O)CC(=O)C(=O)OC)cc1` belongs 88 to 92 °C; to `N#Cc1cc(Cl)ccc1N=C=O`, 71 to 75 °C; to `COC(=O)c1c[nH]cc1-c1ccc([N+](=O)[O-])cc1`, 244 to 246 °C.
In the case of `Nc1cc(CO)ccc1Cl`, the melting point lay within 97 to 99 °C.
Molecule `COc1ccc(C(=O)Nc2sc3c(c2C(=O)O)CCCC3)cc1` came in with a melting point of 216 to 220 °C.
Take `CC(C)C(=O)N1CCCC1C(=O)O` (centres undefined): the melting point fell in the range of 118 to 120 °C.
The molecule `CC(C(=O)O)c1ccc(S(C)(=O)=O)cc1` (centres undefined) gave a melting point of 91 to 93 °C.
As to `O=C(O)c1ccc(Cl)c(S(=O)(=O)Nc2ccc(Br)cc2)c1`, the melting point was 225 to 227 °C.
The molecule `CC(NC(=O)CC1CCCC1)C(=O)O` (centres undefined) showed a melting point of 139 to 141 °C.
`COCc1cc(O)ncn1` gave a melting point of 159 to 161 °C.
To `Cc1cc(C)c2c(Cl)c(C(=O)O)sc2c1` belongs 286 to 288 °C; to `Cc1cc(C)n(CC(=O)NN)n1`, 102 to 104 °C; to `O=C(CCl)Nc1cc(C(F)(F)F)ccc1N1CCCC1`, 271 to 272 °C.
Regarding `CCN(C(=O)OC(C)(C)C)C(C(N)=S)c1cccnc1` (centres undefined), the melting point fell in the range of 139 to 141 °C.
In turn, `Ic1ccccc1-c1nn[nH]n1` displayed a melting point of 217 to 219 °C.
Molecule `Clc1nc(-c2cccnc2)nc2scc(-c3ccccc3)c12` yielded a melting point of 155 to 157 °C.
To `Cc1csc(NC(=O)CCl)n1` belongs 127 to 129 °C.
The molecule `O=C(O)CSc1nncs1` yielded a melting point of 157 to 159 °C.
For the molecule `Nc1ncc(-c2cccc(Cl)c2)s1`, the melting point lay in the range of 143 to 145 °C.
Molecule `O=C(O)CC(c1ccccc1)N1CCOC1=O` (centres undefined) showed a melting point of 123 to 125 °C.
In the case of `Nc1nc2cc(Cl)cc(Br)c2o1`, the melting point lay within 228 to 230 °C.
With `NNc1cn[nH]c(=O)c1Cl`, the melting point lay within 171 to 173 °C.
With `O=C(O)c1cc2c([nH]c1=O)CCCCC2`, the melting point fell in the range of 247 to 249 °C.
In the case of `CCCOc1ccc2[nH]cc(CO)c2c1`, the melting point lay within 89 to 91 °C.
`Cn1cc(C(=O)O)c(C2CCCCC2)n1`: the melting point fell in the range of 157 to 159 °C.
As to `O=C(O)c1cc2c(s1)CCCCC2`, the melting point was in the range of 162 to 166 °C.
For the molecule `CCOC(=O)Nc1cccc(O)c1`, the melting point lay within 95 to 97 °C.
`O=C(O)c1sccc1SC(F)F` returned a melting point of 117 to 119 °C.
To `Nc1ccccc1NC(=O)Cc1cccs1` belongs 163 to 165 °C; to `Cc1nc2c(cnn2C(C)C)c(=O)[nH]1`, 174 to 176 °C.
With `O=[N+]([O-])c1cc(C(F)(F)F)ccc1I`, the melting point lay in the range of 34 to 36 °C.
In turn, `OCc1ccnc(-c2ccccc2)n1` yielded a melting point of 43 to 45 °C.
To `O=C(c1cccc(F)c1)c1cccc(Cl)c1` belongs 62 to 64 °C.
To `CCc1ccc(C(N)C(=O)O)cc1` (centres undefined) belongs 219 to 221 °C; to `Cc1nc2ccccn2c1P(c1ccccc1)c1ccccc1`, 98 to 100 °C.
To `Cc1cn2c(=O)c(C(=O)O)cnc2s1` belongs 239 to 241 °C; to `Nc1ccccc1C(=O)Nc1cccc(C(F)(F)F)c1`, 133 to 135 °C; to `NC(=O)NCC1CCCCC1`, 168 to 170 °C.
`Cc1ccc(C(=O)c2ccc3[nH]c(=O)oc3c2)cc1` came in with a melting point of 206 to 208 °C.
Molecule `CNc1cc(C(F)(F)F)nc2ccccc12` registered a melting point of 159 to 161 °C.
To `NNC(=O)Cc1ccccc1Cl` belongs 154 to 156 °C.
In the case of `CC(=O)c1ccc(OCc2ccccc2C)cc1`, the melting point fell in the range of 98 to 100 °C.
As for `Cc1ccc(-n2nnc(CC(=O)O)c2C)cc1`, the melting point was in the range of 194 to 196 °C.
Molecule `Cc1ncc(C(=O)O)c(Cl)c1Br` displayed a melting point of 152 to 154 °C.
`CCC(C)C(NC(=O)c1ccccc1)C(=O)O` (centres undefined): the melting point fell in the range of 117 to 119 °C.
`CC(=O)c1ccc(N2CCC(O)CC2)cc1` displayed a melting point of 127 to 129 °C.
Turning to `Nc1cc(Cl)ccc1-n1ccnc1`, the melting point fell in the range of 154 to 156 °C.
For `O=C(O)CC(Br)C(=O)c1cccs1` (centres undefined), the melting point was 125 to 127 °C.
Consider `CC(C)CC(=O)NNC(=O)C(C)Cl` (centres undefined), for which the melting point lay within 174 to 176 °C.
In turn, `O=C(O)CCc1cc(Cl)ccc1Br` displayed a melting point of 83 to 85 °C.
To `O=C(O)c1ccc(NS(=O)(=O)c2ccc(F)cc2)cc1` belongs 240 to 242 °C; to `CC(C)c1nc(C(=O)O)nn1-c1ccccc1F`, 159 to 161 °C; to `CC1CCCC(NC(=O)OC(C)(C)C)(C(=O)O)C1` (centres undefined), 149 to 151 °C.
In turn, `O=[N+]([O-])c1ccc(NC2CCCC2)nc1` displayed a melting point of 114 to 116 °C.
Molecule `COc1ccc(CCC(=O)O)c(OC)c1OC` came in with a melting point of 73 to 75 °C.
In turn, `NC(=O)NC(CC(=O)O)c1ccc(Br)cc1` (centres undefined) gave a melting point of 199 to 201 °C.
`BrCCOc1ccc2ccccc2c1`: the melting point lay within 94 to 96 °C.
`N#CCc1cc(Br)cnc1O`: the melting point was 209 to 211 °C.
To `CC(C)(C)c1ccc(C2CCCC(O)C2)cc1` (centres undefined) belongs 75 to 77 °C; to `Cn1cc(C(=O)NCC2CCNCC2)cn1`, 175 to 177 °C; to `C1CCC(c2nnn[nH]2)C1`, 119 to 121 °C.
With `CSCc1c(C(=O)O)sc2ccccc12`, the melting point lay in the range of 201 to 203 °C.
As to `O=C(O)CCNC(=O)CCC(=O)O`, the melting point was 132 to 134 °C.
`Cc1cc(-c2cc(C(=O)O)c3c(C)noc3n2)c(C)s1` gave a melting point of 256 to 258 °C.
To `Nc1ccc(-c2ncc3n2CCCC3)cc1` belongs 182 to 184 °C; to `Clc1nc(CN2CCOCC2)nc2scc(-c3ccccc3)c12`, 82 to 84 °C.
Take `CCC(=O)Nc1ccc(C(=O)CCl)cc1`: the melting point is 104 to 106 °C.
In turn, `NC(=O)CCc1ccc(F)cc1` displayed a melting point of 105 to 107 °C.
`CC(C)(C)Cc1nc(-c2ccc(C(=O)O)cc2)no1`: the melting point was in the range of 227 to 229 °C.
As for `CCOC(=O)c1sc(N)c(C(N)=O)c1C`, the melting point was 197 to 199 °C.
The molecule `CC(C)CS(=O)(=O)CC(=O)O` yielded a melting point of 46 to 48 °C.
On to `Nc1ccc(SC(F)(F)F)c(F)c1`, for which the melting point lay within 33 to 35 °C.

In general, melting point refers to the temperature of the solid-liquid transition.

These data come from a melting point compilation (Tetko et al.).
